Columns and labels:
[1] = system: 133 protein kinases and 7 lipid kinases; assay: SelectScreen kinase profiling panel; assay type: biochemical
Procedure: 133 protein kinases and 7 lipid kinases were counterscreened, with […] used at 1 μM, using the Adapta, Lantha and Z-LYTE assays (SelectScreen Kinase Profiling Service; Thermofisher—experimental details of these assays can be found here: https://www.thermofisher.com/uk/en/home/industrial/pharma-biopharma/drug-discovery-development/target-and-lead-identification-and-validation/kinasebiology/kinase-activity-assays.html. The tree representation in KinMap generated courtesy of Cell Signaling Technology, Inc. (www.cellsignal.com). mTORC1 (mTOR/RAPTOR/LST8) protein complex and ATM kinase and substrates were produced as previously described (Anandapadamanaban, M. et al. Science (New York, NY 366, 203-210 (2019); Baretic, D. et al. Sci Adv 3, e1700933 (2017). Screening of 1938 was conducted using SuperSep Phos-Tag 50 μmol/l 100×100×6.6 mm 17-well (192-18001/199-18011) gels. For ATM assays, 100 nM ATM was incubated for 30 min at 30° C. with 5 μM GST-p53 and 1 mM ATP, in the absence or presence of 200 μM 1938 in ATM Kinase Buffer (50 mM HEPES pH 7.5, 100 mM NaCl, 10% glycerol, 2 mM […], 5 mM MgCl2). […] Gels were then stained using InstantBlue™ Coomassie stain, and then quantified using BioRad Image Lab Software. […]

[2] = system: pAKT^S473 in MEFs and A549; assay: Time course of pAKT S473 induction in MEFs and A549; assay type: cell-based; details: 1938 (5 μM)
Excerpt: The inventors next monitored the activation of AKT, the best-known PI3K effector stimulated by PIP3/PI(3,4)P2 production in cells. […] As previously reported, PI3Kα-null MEFs still respond to insulin, but now in a PI3Kβ-dependent manner, as shown by sensitivity of insulin-stimulated pAKT^S473 to the PI3Kβ-selective inhibitor TGX-221 (FIG. 3b). […] Similar observations were made for mTORC1 pathway activation, as measured by S6 (Ser240/44) and 4EBP1 (Ser65) phosphorylation (FIG. 3e). […] Experiments with A549 cells and MEFs were performed separately using slightly different protocols. Briefly, A549 cells were seeded at 200,000 cells per well in 24-well plates in DMEM (10% FBS+1% P/S) and allowed to adhere overnight. The next day, cells were washed once with PBS before addition of serum-free DMEM for 24 h. On the day of treatment, cells were incubated in fresh serum-free DMEM prior to treatment. […]

PI3Kα-WT MEFs = assay: Cell number by crystal violet staining in MEFs; assay type: cell-based, mouse; details: 72 h
Procedure: MEFs were seeded at 5000 cells per well in 96-well plates in DMEM supplemented with 10% FBS and 1% P/S, and allowed to attach overnight. The next day, cells were serum-starved for 5 h prior to compound addition in fresh serum-free DMEM. After different time points, cells were rapidly washed with distilled H2O before fixed and stained in a solution of 0.5% crystal violet (Sigma-Aldrich cat #C0775) in 20% methanol (v:v) as described (Feoktistova, M. et al. Cold Spring Harb Protoc 2016, pdb prot087379 (2016). Briefly, after 20 min incubation at room temperature on a rocking platform, fixed and stained cells were washed 3 times with distilled H2O and plates air-dried overnight. 200 μl methanol was next added to each well and the plates were incubated at room temperature for 20 min on a bench rocker, followed by measurement of optical density at 570 with a plate reader.

CCN1CCN(c2ccc(Nc3cc(Nc4cccc5c4N(C(C)=O)CC5)ccn3)cc2)CC1 [Example 1938]
number of protein kinases inhibited between 25-50% ([1]; 1 μM of 1938): 13 | activity of other PI3K isoforms and PI3K-related kinases in the panel ([1]; PI3Kβ, PI3Kγ, PI3Kδ, PI3K-C2α, Vps34, PI4Kβ, mTOR, DNA-PK, 1 μM): did not affect | time of onset of pAKT^S473 induction [2]: 5 min | time of peak pAKT^S473 activation [2]: 30 min | cell number (crystal violet staining) (PI3Kα-WT MEFs): an increase in cell number

— patent US20250263404A1, “AMINOPYRIDINES AS ACTIVATORS OF PI3 KINASE” (UCL Business Ltd, priority 2021, published 2025)
